Measurements: PMC2288786 (BMC Structural Biology, 2008)
One block for each substance: values may come before it. Where no end group is shown, it is not given here.

Assays:
CaM [1] = target: T1, CaM (Rattus norvegicus, UniProt P0DP29); experiment: Surface plasmon resonance, peptide over immobilised CaM; format: binding, vertebrate
T1 construct: made in house; host or cells: E. coli Rosetta (DE3)
Description: SPR assays were performed with a Biacore 3000 instrument (Biacore AB, Uppsala, Sweden). […] Binding of the peptide was tested in 10 mM HEPES pH 7.5, 150 mM NaCl, 4 mM CaCl2 containing 0.005% P-20 surfactant (Biacore AB), at a flow rate of 30 μl/min. Various concentrations of the peptide (2.5–200 μM) were injected in duplicate over both of the flow cells for 3 min, and a 6-min dissociation phase followed each injection. The surfaces were regenerated with a 20-s injection of 10 mM EDTA and another 10-s injection of 20 mM NaOH at a flow rate of 30 μl/min prior to the next injection cycle. The BIAevaluation software version 3.1 (Biacore AB) was used to analyse the data. […] Furthermore, a sensorgram of the injection of buffer alone was subtracted from the data. The data were analysed using the various interaction models available in the software, including the mass transfer model. The only model giving a reasonable fit to the data was the conformational change model (see Results).
A 20-μM solution of the peptide in the running buffer was injected over the flow cells of the CaM-coated sensor chip at a flow rate of 30 μl/min, using different injection times (1, 3, and 20 min). Each injection was followed by a 15-min dissociation time. The surface was regenerated and the data were treated as above.

CaM [2] = target: T1, CaM; experiment: Isothermal titration calorimetry of MBP peptide binding to CaM; parameters: species or system vertebrate
Description: The peptide was dissolved in 50 mM HEPES pH 7.5, 20 mM CaCl2 and stored at -20°C. […] Native MBP protein isolated using the chloroform extraction method from post-mortem human brain was obtained from FermLab (Turku, Finland).
The samples for the experiment were extensively dialysed against 50 mM HEPES pH 7.5, 20 mM CaCl2 and degassed in an ultrasonic water bath. […] The first injection of 2 μl was followed by 19 15-μl injections of the peptide. The experiment was carried out at +25, +30, +35, and +40°C. The dilution heat was measured by titrating the buffer with the 1 mM peptide solution. […] The raw data were fitted by non-linear least squares minimisation with models for both a single site and four binding sites (see Results), using the Origin version 5.0 software (MicroCal).

CaM [3] = experiment: Affinity chromatography of human brain MBP on CaM-sepharose; format: binding
Description: Calcium-dependent affinity chromatography of human MBP on CaM-sepharose (GE Healthcare) was carried out as follows: 200 μg of lyophilized human brain MBP were dissolved in 50 mM HEPES pH 7.5, 150 mM NaCl, 2 mM CaCl2. The same buffer that was used to equilibrate 100 μl of the CaM-sepharose matrix. The sample was mixed with the matrix and washed with 5 ml of the above buffer. Elution was done with 1.4 ml of 50 mM HEPES pH 7.5, 150 mM NaCl, 2 mM EGTA. The fractions were applied on a 18% SDS-PAGE gel. To detect which isoforms were bound to CaM-sepharose, fractions 2 (wash) and 7 (EGTA elution) were purified with Vivapure® C18 Micro spin columns prior to analysis by mass spectrometry. MALDI-ToF mass spectrometry was performed with a Voyager-DE STR Biospectrometry Workstation (Applied Biosystems). 1 μl of the protein sample was spotted on sinapinic acid matrix.

CaM [4] = target: T1, CaM; experiment: Size exclusion chromatography of CaM with and without MBP peptide; format: binding, vertebrate; settings: Superdex 75, free CaM
CaM [5] = target: T1, CaM; experiment: Far-UV circular dichroism, k2d secondary structure deconvolution; format: physicochemical, vertebrate; settings: k2d deconvolution of CD spectrum, +20°C, 10 mM HEPES pH 7.5, 150 mM NaCl, 4 mM CaCl2; CaM 0.050 mg/ml, peptide 0.030 mg/ml
Description: The spectra were corrected by subtracting the spectrum of a buffer sample (10 mM HEPES pH 7.5, 150 mM NaCl, 4 mM CaCl2). Noise reduction was applied to smooth the data with the Jasco software. The spectra are presented as mean residue ellipticity (θ), calculated by using the molar concentration of peptide or protein and multiplying by the appropriate number of peptide bonds. […] Secondary structure contents of the samples were estimated with the program […] [26].

Substance: HKGFKGVDAQGTLSKIFKL [MBP peptide]
Kd (CaM [1]): 58 µM | Kd (CaM [2]): 25.9 µM | Kd (CaM [2]; 25°C (298.15 K), fit to the specific binding site only (one site, peaks 2–7), 1.0 mM peptide into 0.10 mM CaM, 50 mM HEPES pH 7.5, 20 mM CaCl2): 3.4 µM | Kd (CaM [2]; 30°C (303.15 K), fit to the specific binding site only (one site, peaks 2–7), 1.0 mM peptide into 0.10 mM CaM, 50 mM HEPES pH 7.5, 20 mM CaCl2): 2.3 µM | Kd (CaM [2]; 35°C (308.15 K), fit to the specific binding site only (one site, peaks 2–7), 1.0 mM peptide into 0.10 mM CaM, 50 mM HEPES pH 7.5, 20 mM CaCl2): 1.9 µM | Kd in words (CaM [2]; ITC, different temperatures): low μM range

Substance: myelin basic protein (HKGFKGVDAQGTLSKIFKL) [MBP, Native MBP protein isolated using the chloroform extraction method from post-mortem human brain; 17.2- and 18.5-kDa isoforms]
binding to CaM-sepharose in presence of calcium (CaM [3]; 50 mM HEPES pH 7.5, 150 mM NaCl, 2 mM CaCl2): retained in the affinity matrix | release from CaM-sepharose by EGTA (CaM [3]; 50 mM HEPES pH 7.5, 150 mM NaCl, 2 mM EGTA): released | MBP isoforms in EGTA eluate (CaM [3]; MALDI-ToF mass spectrometry): 17.2 and 18.5 kDa, were both present in the EGTA eluate

apparent molecular weight in gel filtration (CaM [4]): approximately 30 kDa
Substance: calmodulin [CaM]
Random coil content (CaM [5]): 0.12 | α-Helix content (CaM [5]): 0.88 | β-Sheet content (CaM [5]): 0
